Results as given in publication PMC12655446, “Colon-Specific Delivery of Probenecid Enhances Therapeutic Activity of the Uricosuric Agent Against Rat Colitis” (Pharmaceutics, 2025).
Entries after “also recorded” stand apart in the source; their conditions may differ.

Experiments:
[1] = Incubation in small intestinal contents of rats; format: in vitro ADME, rat; settings: 10 h
Procedure: Male Sprague-Dawley rats (250–260 g) were euthanized with CO2 prior to making a midline abdominal incision. The small intestinal contents were collected and suspended in isotonic phosphate buffer (pH 6.8) to prepare a 20% (w/v) suspension. PBN-GA (2 mM) was dissolved in 3 mL of isotonic phosphate buffer (pH 6.8), were mixed with 3 mL of the small intestinal suspension and incubated at 37 °C. A solution of PBN-AA was created with the same method. At designated time points, 0.5 mL of the reaction mixture was collected and centrifuged at 10,000× g at 4 °C for 10 min, and 0.1 mL of the supernatant was mixed with 0.9 mL of methanol. After vortexing and centrifugation under the same conditions, the final supernatant was filtered through a 0.45 μm membrane, and 20 μL of the filtrate was analyzed for PBN concentration by HPLC.

Caco-2 cell monolayer = experiment: Cell permeability assay across Caco-2 cell monolayer; format: in vitro ADME; settings: 500 μM apical, up to 24 h, apical to basolateral
Procedure: The cell permeabilities of PBN, PBN-GA, and PBN-AA were evaluated using a Caco-2 cell monolayer model. Caco-2 cells were seeded at a density of 4 × 10^5 cells per insert in Transwell 6-well plates with a pore size of 0.4 μm (SPL Life Sciences, Pocheon, Gyeonggi-do, Republic of Korea). The cells were cultured in Dulbecco’s modified eagle medium (DMEM) supplemented with 10% Fetal bovine serum (FBS) and 1% penicillin/streptomycin until the transepithelial electrical resistance (TEER) measured using an EMD Millipore system (Billerica, MA, USA) reached 2000 Ω·cm^2, indicating an intact monolayer.
For the transport study, the apical (donor) compartment was filled with 2 mL of DMEM without phenol red containing the test compounds (500 μM), and 3 mL of DMEM without phenol red was placed in the basolateral (acceptor) compartment. Samples were collected from the basolateral side at designated time intervals up to 24 h to determine the concentration of the permeated compounds using HPLC. Each experiment was performed in triplicate, and monolayer integrity was confirmed by maintaining TEER values above 2000 Ω·cm^2 before and after the assay.

[2] = Chemical stability in HCl-NaCl buffer (pH 1.2) and isotonic phosphate buffer (pH 6.8); format: physicochemical
Procedure: The chemical stabilities of PBN-GA and PBN-AA were tested in HCl-NaCl buffer (pH 1.2) and isotonic phosphate buffer (pH 6.8). Changes in the concentrations of PBN-GA and PBN-AA were monitored by HPLC.

[3] = Distribution coefficient (log D6.8), isotonic phosphate buffer (pH 6.8)/n-octanol; format: physicochemical
Procedure: Distribution coefficients (log D6.8) of PBN, PBN-GA, and PBN-AA were measured using an isotonic phosphate buffer (pH 6.8)/n-octanol system, as described previously.

DNBS-induced rat colitis = experiment: Anticolitis effects in DNBS-induced rat colitis; format: in vivo
Procedure: Experimental colitis was induced in rats as previously described. Briefly, male Sprague–Dawley rats underwent to a 24 h fasting period with free access to water. Anesthesia was induced using 3% isoflurane and maintained at 2.5% in 1 L/min oxygen using a Small Animal O2 Single Flow Anesthesia System (LMS, Pyeongtaek, Republic of Korea). Once the animals no longer reacted to external tactile stimulation, a rubber cannula (2 mm outer diameter) was carefully inserted rectally, positioning the tip approximately 8 cm from the anus to target the splenic flexure. A solution of DNBS (48.0 mg) in 0.4 mL of 50% aqueous ethanol was then instilled into the colon via cannula to induce colitis.
Three days after the induction of colonic inflammation, the respective drugs were orally administered to the rats once daily for 6 consecutive days. The experimental scheme and treatment group assignments are shown in Supplementary Material S1. Colonic damage scores (CDS) were determined based on previously established scoring criteria. The scoring system is shown in Supplementary Material S2. Three independent observers blinded to the treatment groups conducted the CDS assessments. Myeloperoxidase (MPO) activity in the distal colon (4 cm) was determined as previously. One unit of MPO activity was defined as 1.0 μmol min^−1 of peroxide degradation at 25 °C.
Western blot analysis was performed on lysates derived from distal colon tissues following a previously established protocol. The detailed procedure is shown in Supplementary Material S3. Western blot images were quantified using Image Lab software (version 5.2 build 14; Bio-Rad, Hercules, CA, USA). Results are presented as the mean of the quantified values for each Western blot in the figures (n = 5).
The levels of inflammatory cytokine-induced neutrophil chemoattractant-3 (CINC-3) in the inflamed distal colon were determined using a CINC-3 enzyme-linked immunosorbent assay (ELISA) kit (R&D Systems, Minneapolis, MN, USA) as previously described.

[4] = PBN concentration in the cecum after oral gavage; format: in vivo; settings: rat
Procedure: For cecal distribution studies, rats were orally administered PBN (30.0 mg/kg) or PBN-GA (43.6 mg/kg, equivalent to 30.0 mg/kg of PBN) in 1.0 mL PBS. At 2, 4, and 8 h post-dosing, the cecal contents were harvested and suspended in isotonic phosphate buffer (pH 6.8) to prepare 10% (w/v) homogenates. Quantitative analysis of PBN in the cecal suspensions was performed using HPLC, following the procedure described in Section 2.7.

[5] = tested on: dextran sulfate sodium-induced colitis; design: method as in PMID 40602551; settings: mice, oral 100 mg/kg; cited from earlier work
Px-1 = tested on: Px-1; design: method as in PMID 18596212; settings: cited from earlier work
[6] = oral once daily for 6 days, PBN-GA 21.8 and 43.6 mg/kg

Row | SMILES | change in concentration of the conjugate (stability) [1] | transport via the Caco-2 cell monolayer compared with PBN (Caco-2 cell monolayer) | change in concentration of the conjugate (stability) ([2]; buffer pH 1.2, 10 h) | change in concentration of the conjugate (stability) ([2]; buffer pH 6.8, 10 h) | logD [3] | further results
1 | CCCN(CCC)S(=O)(=O)c1ccc(C(=O)N[C@@H](CC(=O)O)C(=O)O)cc1 [PBN-AA, aspartic acid-conjugated PBN] | no significant change | lower transport | no significant change | no significant change | -1.04 | 
2 | CCCN(CCC)S(=O)(=O)c1ccc(C(=O)N[C@@H](CCC(=O)O)C(=O)O)cc1 [PBN-GA, glutamic acid-conjugated PBN] | no significant change | lower transport | no significant change | no significant change | -1.22 | CINC-3 level in inflamed colon (ELISA) (DNBS-induced rat colitis; [6]): dose-dependently diminished; COX-2 level in inflamed colon (Western blot) (DNBS-induced rat colitis; [6]): dose-dependently diminished; iNOS level in inflamed colon (Western blot) (DNBS-induced rat colitis; [6]): dose-dependently diminished; mucosal recovery (H&E staining of inflamed colon) (DNBS-induced rat colitis; [6]): more effective than PBN and SSZ; myeloperoxidase (MPO) activity in inflamed distal colon (DNBS-induced rat colitis; [6]): dose-dependently diminished; colonic tissue damage (colonic damage score, CDS) (DNBS-induced rat colitis; oral once daily for 6 days, PBN-GA 21.8 and 43.6 mg/kg, PBN 30.0 mg/kg, SSZ 50.0 mg/kg): greater with PBN-GA than with PBN; also recorded: more effective than SSZ; suppression of the inflammatory response compared with PBN and SSZ (DNBS-induced rat colitis; regardless of the dose of PBN-GA): more effective in suppressing the inflammatory response than PBN and SSZ; amount of PBN detected in the cecum compared with oral PBN ([4]; oral 43.6 mg/kg (equivalent to 30.0 mg/kg PBN), 2, 4 and 8 h): much greater amount of PBN; amount of PBN in the large intestine relative to oral PBN ([4]; oral, all time points): ten-fold
3 | N[C@@H](CCC(=O)O)C(=O)O [GA, glutamic acid] |  |  |  |  |  | effect on dextran sulfate sodium-induced colitis [5]: attenuates
4 | CCCN(CCC)S(=O)(=O)c1ccc(C(=O)O)cc1 [PBN, Probenecid] |  |  |  |  | 0.3 | concentration required for significant inhibition of Px-1 (Px-1): 1 mM
